From patent US10138260B2, “Compounds of phosphinanes and azaphosphinanes, a process for their preparation and pharmaceutical compositions containing them” (LES LABORATOIRES SERVIER, priority 2016, dated 2018)

Molecular target: T1, TAFIa (Homo sapiens, UniProt Q96IY4)
T1 sequence (Q96IY4 115-423): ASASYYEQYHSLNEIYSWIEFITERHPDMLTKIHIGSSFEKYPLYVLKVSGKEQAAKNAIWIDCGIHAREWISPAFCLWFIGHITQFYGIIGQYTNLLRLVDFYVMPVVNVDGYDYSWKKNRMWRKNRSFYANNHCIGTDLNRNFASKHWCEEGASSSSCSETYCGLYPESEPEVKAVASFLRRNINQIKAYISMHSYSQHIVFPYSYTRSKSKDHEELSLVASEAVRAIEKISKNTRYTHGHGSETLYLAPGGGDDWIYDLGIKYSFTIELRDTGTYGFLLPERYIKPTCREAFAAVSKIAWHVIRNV
Assay: Inhibition of TAFIa (hippuryl-Arg test)
Format: biochemical
Settings: TAFIa 2 nM, hippuryl-arginine 5 mM, 45 minutes, relative to control containing the carrier; for inhibition at 0.01 µM: compound at 10 nM; for inhibition at 0.02 µM: compound at 20 nM
Method: Human TAFI (4 nM) is incubated with human thrombin (10 nM) and human thrombomodulin (5 nM) in the presence of calcium (10 mM). After incubation for 20 minutes, the activation reaction is stopped by addition of PPACK (1 μM final), an irreversible thrombin inhibitor.
The reactions take place in Hepes buffer (25 mM Hepes, 137 mM NaCl, 3.5 mM KCl)+0.1% bovine albumin, pH 7.4 at 28° C. and with stirring.
The test compound is added to the solution of TAFIa (2 nM) and incubated for 45 minutes in the presence of hippuryl-arginine (5 mM). The reaction is stopped by addition of hydrochloric acid (1M) neutralised subsequently with sodium hydroxide (1M), and then the mixture is buffered with disodium hydroxyphosphate (1M pH 7.4). […] The reaction mixture is stirred (vortex) and then centrifuged. The supernatant is transferred to a 96-well microplate, and the absorbance is measured using a spectrophotometer at 405 nm (Spectramax plus, Molecular Devices).
The OD value of a well containing the reagents without TAFI is subtracted from all the OD values measured. The percentage inhibition of TAFIa at a given concentration of the test compound is determined by means of the following formula: % inhibition=100−[(OD compound×100)/OD carrier]
The compounds are evaluated at 10 nM and 20 nM under the experimental conditions described above and the results are expressed as the percentage inhibition relative to a control containing the carrier in the absence of compound.

| inhibition at 0.01 µM [%] | inhibition at 0.02 µM [%] | SMILES |
| --- | --- | --- |
| 38 | 52 | NCCCC[C@@]1(C(=O)O)CN(Cc2ccc(F)cc2-c2nccs2)CCP1(=O)O [Example 245, (3S)-3-(4-AMINOBUTYL)-1-[[4-FLUORO-2-(1,3-THIAZOL-2-YL)PHENYL]METHYL]-4-HYDROXY-4-OXO-1,4-AZAPHOSPHINANE-3-CARBOXYLIC ACID] |
| 68 | 79 | NCCCC[C@@]1(C(=O)O)CN(Cc2ccc(F)cc2-c2cncnc2)CCP1(=O)O [Example 234, (3S)-3-(4-AMINOBUTYL)-1-[(4-FLUORO-2-PYRIMIDIN-5-YLPHENYL)METHYL]-4-HYDROXY-4-OXO-1,4-AZAPHOSPHINANE-3-CARBOXYLIC ACID] |
| 60 | 78 | NCCCC[C@@]1(C(=O)O)CN(Cc2ccccc2-c2ccc(F)cc2)CCP1(=O)O [Example 197, (3S)-3-(4-AMINOBUTYL)-1-[[2-(4-FLUOROPHENYL)PHENYL]METHYL]-4-HYDROXY-4-OXO-1,4-AZAPHOSPHINANE-3-CARBOXYLIC ACID] |
| 66 | 83 | Cn1cncc1-c1cc(F)ccc1CN1CCP(=O)(O)[C@](CCCCN)(C(=O)O)C1 [Example 217, (3S)-3-(4-AMINOBUTYL)-1-[4-FLUORO-2-(1-METHYL-1H-IMIDAZOL-5-YL)BENZYL]-4-HYDROXY-4-OXO-1,4-AZAPHOSPHINANE-3-CARBOXYLIC ACID] |
| 54 | 73 | Cc1ccc(-c2cc(F)ccc2CN2CCP(=O)(O)[C@](CCCCN)(C(=O)O)C2)cc1 [Example 180, (3S)-3-(4-AMINOBUTYL)-1-[[4-FLUORO-2-(4-METHYLPHENYL)PHENYL]-METHYL]-4-HYDROXY-4-OXO-1,4-AZAPHOSPHINANE-3-CARBOXYLIC ACID] |
| 60 | 77 | Cn1nccc1-c1ccccc1CN1CCP(=O)(O)[C@](CCCCN)(C(=O)O)C1 [Example 235, (3S)-3-(4-AMINOBUTYL)-4-HYDROXY-1-[[2-(2-METHYLPYRAZOL-3-YL)PHENYL]METHYL]-4-OXO-1,4-AZAPHOSPHINANE-3-CARBOXYLIC ACID] |
| 77 | 91 | NCCCC[C@@]1(C(=O)O)CN(Cc2ccc(F)cc2-c2ccncc2)CCP1(=O)O [Example 192, (3S)-3-(4-AMINOBUTYL)-1-[(4-FLUORO-2-PYRIDIN-4-YLPHENYL)METHYL]-4-HYDROXY-4-OXO-1,4-AZAPHOSPHINANE-3-CARBOXYLIC ACID] |
| 66 | 80 | NCCCC[C@@]1(C(=O)O)CN(Cc2ccccc2-c2ccc(O)nc2)CCP1(=O)O [Example 240, (3S)-3-(4-AMINOBUTYL)-4-HYDROXY-1-[[2-(6-HYDROXYPYRIDIN-3-YL)PHENYL]METHYL]-4-OXO-1,4-AZAPHOSPHINANE-3-CARBOXYLIC ACID] |
| 71 | 78 | NCCCC[C@@]1(C(=O)O)CN(Cc2ccc(F)cc2-c2ccc(F)cc2)CCP1(=O)O [Example 189, (3S)-3-(4-AMINOBUTYL)-1-[[4-FLUORO-2-(4-FLUOROPHENYL)PHENYL]METHYL]-4-HYDROXY-4-OXO-1,4-AZAPHOSPHINANE-3-CARBOXYLIC ACID] |
| 76 | 91 | COc1ccc(-c2ccccc2CN2CCP(=O)(O)C(CCCCN)(C(=O)O)C2)cn1 (centres unmarked) [Example 165, 3-(4-AMINOBUTYL)-4-HYDROXY-1-[[2-(6-METHOXYPYRIDIN-3-YL)PHENYL]-METHYL]-4-OXO-1,4-AZAPHOSPHINANE-3-CARBOXYLIC ACID] |
| 82 | 91 | NCCCC[C@@]1(C(=O)O)CN(Cc2ccc(F)cc2-c2ccc3ccccc3c2)CCP1(=O)O [Example 215, (3S)-3-(4-AMINOBUTYL)-1-[(4-FLUORO-2-NAPHTHALEN-2-YLPHENYL)METHYL]-4-HYDROXY-4-OXO-1,4-AZAPHOSPHINANE-3-CARBOXYLIC ACID] |
| 62 | 86 | Cn1cc(-c2cc(F)ccc2CN2CCP(=O)(O)[C@](CCCCN)(C(=O)O)C2)cn1 [Example 212, (3S)-3-(4-AMINOBUTYL)-1-[4-FLUORO-2-(1-METHYL-1H-PYRAZOL-4-YL)BENZYL]-4-HYDROXY-4-OXO-1,4-AZAPHOSPHINANE-3-CARBOXYLIC ACID] |
| 49 | 68 | COc1cccc(-c2cc(F)ccc2CN2CCP(=O)(O)[C@](CCCCN)(C(=O)O)C2)n1 [Example 244, (3S)-3-(4-AMINOBUTYL)-1-[[4-FLUORO-2-(6-METHOXYPYRIDIN-2-YL)PHENYL]-METHYL]-4-HYDROXY-4-OXO-1,4-AZAPHOSPHINANE-3-CARBOXYLIC ACID] |
| 76 | 85 | NCCCC[C@@]1(C(=O)O)CN(Cc2ccc(O)cc2-c2ccncc2)CCP1(=O)O [Example 225, (3S)-3-(4-AMINOBUTYL)-4-HYDROXY-1-[(4-HYDROXY-2-PYRIDIN-4-YLPHENYL)METHYL]-4-OXO-1,4-AZAPHOSPHINANE-3-CARBOXYLIC ACID] |
| 74 | 87 | NCCCC[C@@]1(C(=O)O)CN(Cc2ccccc2-c2cncc3ccccc23)CCP1(=O)O [Example 202, (3S)-3-(4-AMINOBUTYL)-4-HYDROXY-1-[(2-ISOQUINOLIN-4-YLPHENYL)-METHYL]-4-OXO-1,4-AZAPHOSPHINANE-3-CARBOXYLIC ACID] |
| 72 | 91 | NCCCC[C@@]1(C(=O)O)CN(Cc2ccc(F)cc2-c2ccc(Cl)cc2)CCP1(=O)O [Example 198, (3S)-3-(4-AMINOBUTYL)-1-[[2-(4-CHLOROPHENYL)-4-FLUOROPHENYL]METHYL]-4-HYDROXY-4-OXO-1,4-AZAPHOSPHINANE-3-CARBOXYLIC ACID] |
| 74 | 87 | NCCCC[C@@]1(C(=O)O)CN(Cc2ccc(Cl)cc2-c2ccc(Cl)cc2)CCP1(=O)O [Example 195, (3S)-3-(4-AMINOBUTYL)-1-[[4-CHLORO-2-(4-CHLOROPHENYL)PHENYL]METHYL]-4-HYDROXY-4-OXO-1,4-AZAPHOSPHINANE-3-CARBOXYLIC ACID] |
| 76 | 90 | NCCCC[C@@]1(C(=O)O)CN(Cc2ccccc2-c2ccncc2)CCP1(=O)O [Example 252, (3S)-3-(4-AMINOBUTYL)-4-HYDROXY-4-OXO-1-[(2-PYRIDIN-4-YLPHENYL)-METHYL]-1,4-AZAPHOSPHINANE-3-CARBOXYLIC ACID] |
| 81 | 89 | COc1ccc(-c2cc(O)ccc2CN2CCP(=O)(O)[C@](CCCCN)(C(=O)O)C2)cc1OC [Example 229, (3S)-3-(4-AMINOBUTYL)-1-[[2-(3,4-DIMETHOXYPHENYL)-4-HYDROXYPHENYL]-METHYL]-4-HYDROXY-4-OXO-1,4-AZAPHOSPHINANE-3-CARBOXYLIC ACID] |
| 80 | 89 | Cn1nc(C(F)(F)F)cc1-c1ccccc1CN1CCP(=O)(O)[C@](CCCCN)(C(=O)O)C1 [Example 232, (3S)-3-(4-AMINOBUTYL)-4-HYDROXY-1-[[2-[2-METHYL-5-(TRIFLUOROMETHYL)-PYRAZOL-3-YL]PHENYL]METHYL]-4-OXO-1,4-AZAPHOSPHINANE-3-CARBOXYLIC ACID] |
| 54 | 73 | NCCCC[C@@]1(C(=O)O)CN(Cc2ccccc2-c2cccc3ccccc23)CCP1(=O)O [Example 199, (3S)-3-(4-AMINOBUTYL)-4-HYDROXY-1-[(2-NAPHTHALEN-1-YLPHENYL)-METHYL]-4-OXO-1,4-AZAPHOSPHINANE-3-CARBOXYLIC ACID] |
| 42 | 51 | NCCCCC1(C(=O)O)CN(Cc2ccccc2-c2ccccc2-c2ccccc2)CCP1(=O)O (centres unmarked) [Example 114, 3-(4-AMINOBUTYL)-4-HYDROXY-4-OXO-1-[[2-(2-PHENYLPHENYL)PHENYL]-METHYL]-1,4-AZAPHOSPHINANE-3-CARBOXYLIC ACID] |
| 43 | 51 | CC(C)c1ccccc1CN1CCP(=O)(O)C(CCCCN)(C(=O)O)C1 (centres unmarked) [Example 174, 3-(4-AMINOBUTYL)-4-HYDROXY-4-OXO-1-[(2-PROPAN-2-YLPHENYL)METHYL]-1,4-AZAPHOSPHINANE-3-CARBOXYLIC ACID] |
| 67 | 95 | NCCCC[C@@]1(C(=O)O)CN(Cc2ccccc2-c2cccnc2)CCP1(=O)O [Example 184, (3S)-3-(4-AMINOBUTYL)-4-HYDROXY-4-OXO-1-[(2-PYRIDIN-3-YLPHENYL)-METHYL]-1,4-AZAPHOSPHINANE-3-CARBOXYLIC ACID] |
| 37 | 68 | NCCCCC1(C(=O)O)CN(Cc2ccc(F)cc2-c2ccc(O)cc2)CCP1(=O)O (centres unmarked) [Example 104, 3-(4-AMINOBUTYL)-1-[[4-FLUORO-2-(4-HYDROXYPHENYL)PHENYL]METHYL]-4-HYDROXY-4-OXO-1,4-AZAPHOSPHINANE-3-CARBOXYLIC ACID] |
